Test results from patent US8450281B2, “Non-immunosuppressive cyclosporin for treatment of Ullrich congenital muscular dystrophy” (Debiopharm S.A., priority 2007, dated 2013).

Assays:
[1] = test system: myoblast cultures from UCMD patients; test: Mitochondrial TMRM fluorescence (membrane potential) after oligomycin in myoblast cultures from UCMD patients; assay type: cell-based, human; conditions: muscle cell cultures from UCMD patients
Method: To assess whether the anti-apoptotic effects of collagen VI and CsA could be traced to mitochondria, mitochondrial function was studied in living muscle cell cultures. […] Addition of oligomycin was instead followed by mitochondrial depolarization in the cells from all UCMD patients. […] Mitochondrial membrane potential was assessed based on accumulation of tetramethylrhodamine methyl ester (TMRM). It is noted that oligomycin was expected to cause hyperpolarization in healthy, respiring cells in which the mitochondrial membrane potential is maintained by proton pumping by the respiratory chain and the proton electrochemical gradient is used to drive ATP synthesis.
Panels A and B of FIG. 1 show mitochondrial membrane potentials in myoblasts from UCMD patients 1 (A) and 4 (B) as a function of time. Mitochondrial membrane potential was measured based on accumulation of tetramethylrhodamine methyl ester (TMRM). […] The extent of cell and, consequently, mitochondrial loading with potentiometric probes is affected by the activity of the plasma membrane multidrug resistance pump which is inhibited by cyclosporin A. Treatment with cyclosporins may therefore cause an increased mitochondrial fluorescence that can be erroneously interpreted as an increase of mitochondrial membrane potential. […] Data were acquired and analyzed using Cell R software (Olympus). […] Apoptosis was assessed as described before.

[2] = Initial phase I clinical studies, safety of oral doses; assay type: in vivo, human
Method: Initial phase I clinical studies were carried out to assess the safety of oral doses of [D-MeAla]^3-[EtVal]^4-CsA, and to determine the pharmacokinetic profile and safety profile of the drug substance. […] These side effects were not dose-related.

[3] = test system: muscle cell cultures from UCMD patients and healthy donors; test: Electron microscopy of mitochondria in muscle cell cultures; assay type: cell-based, human; conditions: for percentage of cells with swollen mitochondria: oligomycin treatment
Source text: The muscle cell cultures established from healthy donors and from patients 1, 2 and 3 were studied by electron microscopy.

[4] = test system: myoblast cultures from UCMD patients; test: TUNEL incidence of apoptosis in myoblast cultures from UCMD patients; assay type: cell-based, human; conditions: myoblast cultures from UCMD patients 1-4
Method: Experiments were carried out to experimentally test the existence of a causal link between lack of collagen VI and apoptosis. Myoblast cultures were prepared from muscle biopsies of two unaffected controls and from patients 1, 2, 3 and 4 by enzymatic and mechanical treatment and plating in Dulbecco's modified Eagle's medium (DMEM) supplemented with 20% fetal calf serum, penicillin, streptomycin and amphotericin B (Sigma). To test for apoptosis, cells were fixed in 50% acetone-50% methanol and processed for TUNEL analysis using the Dead End Fluorescence TUNEL System (Promega). Visualization of all nuclei was performed by staining with Hoechst 33258. […] Demir et al. 2002. Giusti et al. 2005.
Panels A and B of FIG. 1 show mitochondrial membrane potentials in myoblasts from UCMD patients 1 (A) and 4 (B) as a function of time. Mitochondrial membrane potential was measured based on accumulation of tetramethylrhodamine methyl ester (TMRM). […] The extent of cell and, consequently, mitochondrial loading with potentiometric probes is affected by the activity of the plasma membrane multidrug resistance pump which is inhibited by cyclosporin A. Treatment with cyclosporins may therefore cause an increased mitochondrial fluorescence that can be erroneously interpreted as an increase of mitochondrial membrane potential. […] Data were acquired and analyzed using Cell R software (Olympus). […]

[5] = test system: UCMD and BM patients; test: Preliminary clinical trial, TMRM assay on muscle biopsies of UCMD and BM patients; assay type: in vivo, human; conditions: daily oral dose of 5 mg/kg for thirty days
Method: Five patients were enroIled, of which four suffered from UCMD and one of BM. The patients had mutation in their COL6A1, COL6A2 or COL6A3 genes, respectively. The trial was designed to test whether treatment with CsA was effective in reducing mitochondrial dysfunction as assessed by the ability of oligomycin to cause mitochondrial depolarization in muscle fibers. Depolarization was detected as a change in TMRM fluorescence. Patients were treated with a daily oral dose of 5 mg/kg CsA for a period of thirty days. Muscle biopsies were taken immediately before and after the treatment period and were processed for TMRM assay.

## CC(=O)OCOC(=O)CN(CC(=O)OCOC(C)=O)c1ccccc1OCCOc1ccccc1N(CC(=O)OCOC(C)=O)CC(=O)OCOC(C)=O [BAPTA-AM]
[1]
  response to oligomycin (mitochondrial depolarization, TMRM): fully normalized

## C/C=C/C[C@@H](C)[C@@H](O)[C@H]1C(=O)N[C@@H](CC)C(=O)N(C)[C@H](C)C(=O)N(CC)[C@@H](C(C)C)C(=O)N[C@@H](C(C)C)C(=O)N(C)[C@@H](CC(C)C)C(=O)N[C@@H](C)C(=O)N[C@H](C)C(=O)N(C)[C@@H](CC(C)C)C(=O)N(C)[C@@H](CC(C)C)C(=O)N(C)[C@@H](C(C)C)C(=O)N1C [[D-MeAla]^3-[EtVal]^4-CsA]
[2]; oral doses of 50 to 1600 mg in a micro-emulsion in water
  tolerability: well tolerated
[2]; oral doses of 50 to 1600 mg, not dose-related
  side effects: Mild and short-lived side effects were observed including nausea, vomiting, abdominal pain, and mild headaches

## CC[C@H]1/C=C/C=C/C[C@@H](C)[C@H](O)[C@@](C)(O)C(=O)[C@@H](C)[C@H](O)[C@@H](C)C(=O)[C@@H](C)[C@H](O)[C@@H](C)/C=C/C(=O)O[C@@H]2[C@H](C)[C@H](CC1)O[C@]1(CC[C@H](C)[C@H](C[C@@H](C)O)O1)[C@H]2C [oligomycin]
[3]; control (healthy donor) cultures
  percentage of cells with swollen mitochondria: 4%
[3]; cultures from UCMD patients
  percentage of cells with swollen mitochondria: over 40%

## cyclosporin A
[4]
  occurrence of apoptosis (TUNEL) in the patient samples: fully normalized the occurrence of apoptosis
[3]; UCMD cells, no oligomycin
  number of cells with swollen mitochondria: decreased the number of cells with swoIlen mitochondria to the values observed in cultures from healthy donors
[3]; oligomycin-treated cultures plus cyclosporin A
  percentage of cells bearing swollen mitochondria after oligomycin: restored to values similar to basal
[1]
  response to oligomycin (mitochondrial depolarization, TMRM): fully normalized
[5]
  mitochondrial dysfunction as assayed by oligomycin-induced depolarization: capable of substantially reducing mitochondrial dysfunction
[5]; average of five patients, 90% prior to treatment
  muscle cells depolarizing on oligomycin, subsequent to treatment: 37%
